Reference: ChEMBL document CHEMBL3885881, “DrugMatrix”

Organism: Rattus norvegicus
Test: DrugMatrix - Regimen: Daily Repeat
Format: toxicity, organism-based, Sprague-Dawley
Set-up: regimen Daily Repeat, gender Male, age 6-8 weeks
Conditions: in vivo, iv, vehicle 100 % SALINE; for ABSOLUTE BASOPHIL / ABSOLUTE EOSINOPHIL / ABSOLUTE LYMPHOCYTE / ABSOLUTE MONOCYTE / ABSOLUTE SEGMENTED NEUTROPHIL / BASOPHIL / EOSINOPHIL / ERYTHROCYTE COUNT / HEMATOCRIT / HEMOGLOBIN / LEUKOCYTE COUNT / LYMPHOCYTE / MEAN CORPUSCULAR HEMOGLOBIN / MEAN CORPUSCULAR HEMOGLOBIN CONCENTRATION / MEAN CORPUSCULAR VOLUME / MONOCYTE / NEUTROPHIL / NUCLEATED RED BLOOD CELLS / PLATELET COUNT: tissue Blood; for ALANINE AMINOTRANSFERASE / ALBUMIN / ALKALINE PHOSPHATASE / ASPARTATE AMINOTRANSFERASE / BLOOD UREA NITROGEN / CARBON DIOXIDE / CHLORIDE / CHOLESTEROL / CREATINE PHOSPHOKINASE / CREATININE / GLUCOSE / LACTATE DEHYDROGENASE / LIPASE / PHOSPHORUS / POTASSIUM / SODIUM / TOTAL BILIRUBIN / TOTAL PROTEIN / URIC ACID: tissue Plasma
[1] = 0 mg/kg, 72 h, dose level Control, time 3 day
[2] = 0 mg/kg, 120 h, dose level Control, time 5 day
[3] = […], 72 h, dose 0.15 mg/Kg, dose level Low, time 3 day
[4] = […], 72 h, dose 1.5 mg/Kg, dose level High, time 3 day

CCC1=C[C@@H]2CN(C1)Cc1c([nH]c3ccccc13)[C@@](C(=O)OC)(c1cc3c(cc1OC)N(C)[C@H]1[C@@](O)(C(=O)OC)[C@H](OC(C)=O)[C@]4(CC)C=CCN5CC[C@]31[C@@H]54)C2 [VINORELBINE]
ABSOLUTE BASOPHIL [1]: 0 CELLS/uL
ABSOLUTE EOSINOPHIL [1]: 15.33 CELLS/uL
ABSOLUTE LYMPHOCYTE [1]: 9513.5 CELLS/uL
ABSOLUTE MONOCYTE [1]: 94.67 CELLS/uL
ABSOLUTE SEGMENTED NEUTROPHIL [1]: 709.83 CELLS/uL
BASOPHIL [1]: 0%
EOSINOPHIL [1]: 0.17%
ERYTHROCYTE COUNT [1]: 5.63 x10E6/uL
HEMATOCRIT [1]: 34.63%
HEMOGLOBIN [1]: 13.6 G/DL
LEUKOCYTE COUNT [1]: 10.33 x10E3/uL
LYMPHOCYTE [1]: 92%
MEAN CORPUSCULAR HEMOGLOBIN [1]: 24.17 pg
MEAN CORPUSCULAR HEMOGLOBIN CONCENTRATION [1]: 39.28 G/DL
MEAN CORPUSCULAR VOLUME [1]: 61.57 fL
MONOCYTE [1]: 0.83%
NEUTROPHIL [1]: 7%
NUCLEATED RED BLOOD CELLS [1]: 0 /100WBC
PLATELET COUNT [1]: 903.17 x10E3/uL
ALANINE AMINOTRANSFERASE [1]: 49.33 u/L
ALBUMIN [1]: 4.27 G/DL
ALKALINE PHOSPHATASE [1]: 400.83 u/L
ASPARTATE AMINOTRANSFERASE [1]: 77.5 u/L
BLOOD UREA NITROGEN [1]: 16.33 mg/dL
CARBON DIOXIDE [1]: 29.33 mmol/L
CHLORIDE [1]: 99.67 MEQ/L
CHOLESTEROL [1]: 66.67 mg/dL
CREATINE PHOSPHOKINASE [1]: 275.33 u/L
CREATININE [1]: 0.18 mg/dL
GLUCOSE [1]: 163.83 mg/dL
LACTATE DEHYDROGENASE [1]: 125.33 u/L
LIPASE [1]: 10 u/L
PHOSPHORUS [1]: 12.12 mg/dL
POTASSIUM [1]: 6.68 MEQ/L
SODIUM [1]: 144.02 MEQ/L
TOTAL BILIRUBIN [1]: 0.18 mg/dL
TOTAL PROTEIN [1]: 5.87 G/DL
URIC ACID [1]: 1.63 mg/dL
ABSOLUTE BASOPHIL [2]: 0 CELLS/uL
ABSOLUTE EOSINOPHIL [2]: 48.83 CELLS/uL
ABSOLUTE LYMPHOCYTE [2]: 14562 CELLS/uL
ABSOLUTE MONOCYTE [2]: 138.67 CELLS/uL
ABSOLUTE SEGMENTED NEUTROPHIL [2]: 1733.83 CELLS/uL
BASOPHIL [2]: 0%
EOSINOPHIL [2]: 0.33%
ERYTHROCYTE COUNT [2]: 5.89 x10E6/uL
HEMATOCRIT [2]: 36.7%
HEMOGLOBIN [2]: 14.42 G/DL
LEUKOCYTE COUNT [2]: 16.48 x10E3/uL
LYMPHOCYTE [2]: 88.83%
MEAN CORPUSCULAR HEMOGLOBIN [2]: 24.52 pg
MEAN CORPUSCULAR HEMOGLOBIN CONCENTRATION [2]: 39.3 G/DL
MEAN CORPUSCULAR VOLUME [2]: 62.37 fL
MONOCYTE [2]: 0.67%
NEUTROPHIL [2]: 10.17%
NUCLEATED RED BLOOD CELLS [2]: 0 /100WBC
PLATELET COUNT [2]: 1076.5 x10E3/uL
ALANINE AMINOTRANSFERASE [2]: 44.67 u/L
ALBUMIN [2]: 4.23 G/DL
ALKALINE PHOSPHATASE [2]: 357.33 u/L
ASPARTATE AMINOTRANSFERASE [2]: 84.83 u/L
BLOOD UREA NITROGEN [2]: 15.5 mg/dL
CARBON DIOXIDE [2]: 27 mmol/L
CHLORIDE [2]: 99.5 MEQ/L
CHOLESTEROL [2]: 63.67 mg/dL
CREATINE PHOSPHOKINASE [2]: 331.33 u/L
CREATININE [2]: 0.18 mg/dL
GLUCOSE [2]: 167.33 mg/dL
LACTATE DEHYDROGENASE [2]: 320.17 u/L
LIPASE [2]: 9.17 u/L
PHOSPHORUS [2]: 12.05 mg/dL
POTASSIUM [2]: 6.54 MEQ/L
SODIUM [2]: 143.02 MEQ/L
TOTAL BILIRUBIN [2]: 0.2 mg/dL
TOTAL PROTEIN [2]: 6.23 G/DL
URIC ACID [2]: 2.07 mg/dL
ABSOLUTE BASOPHIL [3]: 0 CELLS/uL
ABSOLUTE EOSINOPHIL [3]: 49.67 CELLS/uL
ABSOLUTE LYMPHOCYTE [3]: 13595.67 CELLS/uL
ABSOLUTE MONOCYTE [3]: 462 CELLS/uL
ABSOLUTE SEGMENTED NEUTROPHIL [3]: 1292.67 CELLS/uL
BASOPHIL [3]: 0%
EOSINOPHIL [3]: 0.33%
ERYTHROCYTE COUNT [3]: 5.91 x10E6/uL
HEMATOCRIT [3]: 37.77%
HEMOGLOBIN [3]: 14.97 G/DL
LEUKOCYTE COUNT [3]: 15.4 x10E3/uL
LYMPHOCYTE [3]: 87.67%
MEAN CORPUSCULAR HEMOGLOBIN [3]: 25.3 pg
MEAN CORPUSCULAR HEMOGLOBIN CONCENTRATION [3]: 39.63 G/DL
MEAN CORPUSCULAR VOLUME [3]: 63.93 fL
MONOCYTE [3]: 3%
NEUTROPHIL [3]: 9%
NUCLEATED RED BLOOD CELLS [3]: 0 /100WBC
PLATELET COUNT [3]: 1301 x10E3/uL
ABSOLUTE BASOPHIL [4]: 0 CELLS/uL
ABSOLUTE EOSINOPHIL [4]: 0 CELLS/uL
ABSOLUTE LYMPHOCYTE [4]: 5207.33 CELLS/uL
ABSOLUTE MONOCYTE [4]: 23 CELLS/uL
ABSOLUTE SEGMENTED NEUTROPHIL [4]: 236.33 CELLS/uL
BASOPHIL [4]: 0%
EOSINOPHIL [4]: 0%
ERYTHROCYTE COUNT [4]: 5.25 x10E6/uL
HEMATOCRIT [4]: 33.27%
HEMOGLOBIN [4]: 13.3 G/DL
LEUKOCYTE COUNT [4]: 5.47 x10E3/uL
LYMPHOCYTE [4]: 95.33%
MEAN CORPUSCULAR HEMOGLOBIN [4]: 25.4 pg
MEAN CORPUSCULAR HEMOGLOBIN CONCENTRATION [4]: 40 G/DL
MEAN CORPUSCULAR VOLUME [4]: 63.43 fL
MONOCYTE [4]: 0.33%
NEUTROPHIL [4]: 4.33%
NUCLEATED RED BLOOD CELLS [4]: 0.33 /100WBC
PLATELET COUNT [4]: 808.33 x10E3/uL
